The values below come from patent US8586551B2, “18-membered macrocycles and analogs thereof” (Optimer Pharmaceuticals, Inc., priority 2005, dated 2013).

Converted amounts (≈) assume the structure as drawn.

For one assay, the system named is Veillonella spp. The assay is described as follows: MIC against intestinal bacteria: Veillonella. The assay is classed as cell-based. The settings on record: Veillonella spp. (10). How it is done:
(§1) The in vitro activity of OPT-80 against intestinal bacteria was evaluated. The experimental procedure for which is outlined in Antimicrobial Agents and Chemotherapy, 2004, 48: 4898-4902, which is hereby incorporated by reference in its entirety.
(§2) Antimicrobial concentration ranges were selected to encompass or surpass the levels that would be achieved in the gut (to the extent that this information is available), subject to the limitations of solubility of the drugs in the testing medium. The range of concentration of OPT-80 used during testing was 0.03 μg/ml to 1024 μg/ml.
(§3) For analysis, the bacteria tested were generally placed into genus, species, or other groups with at least 10 isolates. The ranges and the MICs at which 50 and 90% of isolates were inhibited were determined except for organisms with fewer than 10 strains tested, for which only the ranges are reported (Table 8).

In assay [1] the test system is Clostridium clostridioforme. The assay is described as follows: MIC against intestinal bacteria: Clostridium clostridioforme. The note with it: Clostridium clostridioforme (4). It is filed as cell-based. How it is done:
as §1, §2, §3

Consider `CCc1c(Cl)c(O)c(Cl)c(O)c1C(=O)O[C@H]1[C@H](O)[C@H](OC)[C@H](OCC2=CC=CC[C@H](O)C(C)=C[C@H](CC)[C@@H](O[C@@H]3OC(C)(C)[C@@H](OC(=O)C(C)C)[C@H](O)[C@@H]3O)C(C)=CC(C)=CC[C@@H]([C@@H](C)O)OC2=O)O[C@@H]1C` [R-Tiacumicin B, 3-[[[6-Deoxy-4-O-(3,5-dichloro-2-ethyl-4,6-dihydroxybenzoyl)-2-O-methyl-β-D-mannopyranosyl]oxy]-methyl]-12(R)-[[6-deoxy-5-C-methyl-4-O-(2-methyl-1-oxopropyl)-β-D-lyxo-hexopyranosyl]oxy]-11(S)-ethyl-8(S)-hydroxy-18(S)-(1(R)-hydroxyethyl)-9,13,15-trimethyloxacyclooctadeca-3,5,9,13,15-pentaene-2-one], for which, in the assay on Veillonella spp., the MIC50 came out at 32 µg/mL (≈ 30.2 µM), the MIC90 was found to be 128 µg/mL (≈ 121 µM) and the MIC range lay within 16 to 128 µg/mL. Also, the MIC range in assay [1] was in the range of 4 to 128 µg/mL.
